Measured values as given in US20160272645A1, “Heterocyclic Compounds and Methods of Use” (MEDIVATION TECHNOLOGIES, INC., priority 2013, published 2016).

How the values were obtained:
BTK = target: T1, BTK (Homo sapiens, UniProt Q06187); assay: BTK kinase profiling, HotSpot radiometric assay (Reaction Biology); assay type: biochemical; details: ATP 10 μM; for inhibition at 0.01 µM: compound 0.01 μM, read-out: BTK @ 0.01 μM (% Inh); for inhibition at 0.1 µM: compound 0.1 μM, read-out: BTK @ 0.1 μM (% Inh); for inhibition at 1 µM: compound 1 μM, read-out: BTK @ 1 μM (% Inh)
T1 construct: purchased Reaction Biology Corporation
T1 sequence (Q06187 whole entry): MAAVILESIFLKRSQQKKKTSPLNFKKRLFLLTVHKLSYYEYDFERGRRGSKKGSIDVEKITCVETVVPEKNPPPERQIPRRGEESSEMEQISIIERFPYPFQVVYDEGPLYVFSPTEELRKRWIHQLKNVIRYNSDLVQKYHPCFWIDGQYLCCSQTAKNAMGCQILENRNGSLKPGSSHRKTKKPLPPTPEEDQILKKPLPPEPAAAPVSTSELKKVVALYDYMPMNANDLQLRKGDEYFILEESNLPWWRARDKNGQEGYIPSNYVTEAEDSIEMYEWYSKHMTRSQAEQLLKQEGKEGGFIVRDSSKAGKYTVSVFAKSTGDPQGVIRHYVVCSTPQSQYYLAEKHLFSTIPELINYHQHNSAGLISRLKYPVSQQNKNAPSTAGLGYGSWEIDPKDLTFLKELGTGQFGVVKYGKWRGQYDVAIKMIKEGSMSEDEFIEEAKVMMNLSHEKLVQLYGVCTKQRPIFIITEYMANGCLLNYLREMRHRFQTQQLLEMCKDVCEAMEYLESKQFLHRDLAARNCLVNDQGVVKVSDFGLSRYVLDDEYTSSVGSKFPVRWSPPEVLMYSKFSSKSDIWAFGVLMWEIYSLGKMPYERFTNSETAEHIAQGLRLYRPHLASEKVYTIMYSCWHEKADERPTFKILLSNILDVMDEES
Method: (§1) Compounds of the invention were profiled in a 10 dose IC50 panel against BTK and PI3Kδ, both provided by Reaction Biology Corporation.
BTK assay: In vitro profiling protein kinases was performed using the “HotSpot” assay platform. Briefly, specific kinase/substrate pairs along with required cofactors were prepared in reaction buffer. Compounds were prepared as 10 mM stock solutions in DMSO. Compounds were delivered into the reaction, followed 15-20 minutes later by addition of a mixture of ATP (Sigma, St. Louis Mo.) and ^33P ATP (Perkin Elmer, Waltham Mass.) to a final concentration of 10 μM. Reactions were carried out at RT for 120 min, followed by spotting of the reactions onto P81 ion exchange filter paper (Whatman Inc., Piscataway, N.J.). Unbound phosphate was removed by extensive washing of filters in 0.75% Phosphoric acid. […] ICso values and curve fits were obtained using Prism (GraphPad Software). Buffer Conditions: 20 mM Hepes (pH 7.5), 10 mM MgCl2, 1 mM EGTA, 0.02% Brij35, 0.02 mg/mL BSA, 0.1 mM Na3VO4, 2 mM DTT, 1% DMSO.

PI3Kδ [1] = target: T2, PI3Kδ (Homo sapiens, UniProt O00329); assay: PI3Kδ kinase profiling, HTRF PIP3 displacement assay (Reaction Biology); assay type: biochemical; details: ATP 10 μM; for inhibition at 0.01 µM: compound 0.01 μM, read-out: PI3Kδ @ 0.01 μM (% Inh); for inhibition at 0.1 µM: compound 0.1 μM, read-out: PI3Kδ @ 0.1 μM (% Inh)
T2 construct: purchased Reaction Biology Corporation
T2 sequence (O00329 whole entry): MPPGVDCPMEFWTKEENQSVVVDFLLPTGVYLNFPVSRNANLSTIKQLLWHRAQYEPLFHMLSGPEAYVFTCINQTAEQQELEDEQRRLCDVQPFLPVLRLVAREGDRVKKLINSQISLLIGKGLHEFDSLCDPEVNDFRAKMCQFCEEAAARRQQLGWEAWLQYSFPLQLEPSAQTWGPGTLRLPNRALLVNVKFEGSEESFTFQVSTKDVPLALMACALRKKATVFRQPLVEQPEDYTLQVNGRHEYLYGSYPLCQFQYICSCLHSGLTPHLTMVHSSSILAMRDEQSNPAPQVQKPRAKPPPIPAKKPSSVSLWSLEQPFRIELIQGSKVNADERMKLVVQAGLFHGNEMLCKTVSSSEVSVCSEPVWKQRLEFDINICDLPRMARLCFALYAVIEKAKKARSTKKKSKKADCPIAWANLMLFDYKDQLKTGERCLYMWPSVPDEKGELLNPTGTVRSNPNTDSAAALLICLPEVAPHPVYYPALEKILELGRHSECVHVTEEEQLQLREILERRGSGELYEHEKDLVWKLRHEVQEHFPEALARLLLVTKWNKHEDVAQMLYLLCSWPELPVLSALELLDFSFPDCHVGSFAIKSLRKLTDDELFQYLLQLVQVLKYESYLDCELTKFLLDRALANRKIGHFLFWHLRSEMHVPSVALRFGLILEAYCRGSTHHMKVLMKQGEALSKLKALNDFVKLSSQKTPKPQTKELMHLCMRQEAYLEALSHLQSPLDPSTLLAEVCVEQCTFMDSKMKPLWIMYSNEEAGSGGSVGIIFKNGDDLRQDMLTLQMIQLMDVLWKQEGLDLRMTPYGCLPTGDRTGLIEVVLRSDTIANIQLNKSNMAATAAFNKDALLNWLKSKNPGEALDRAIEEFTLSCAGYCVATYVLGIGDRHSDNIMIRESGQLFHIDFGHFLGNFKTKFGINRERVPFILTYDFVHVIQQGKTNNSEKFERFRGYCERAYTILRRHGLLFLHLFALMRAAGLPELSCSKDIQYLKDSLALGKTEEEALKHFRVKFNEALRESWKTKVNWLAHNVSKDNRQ
T2 sequence (P27986 whole entry partner): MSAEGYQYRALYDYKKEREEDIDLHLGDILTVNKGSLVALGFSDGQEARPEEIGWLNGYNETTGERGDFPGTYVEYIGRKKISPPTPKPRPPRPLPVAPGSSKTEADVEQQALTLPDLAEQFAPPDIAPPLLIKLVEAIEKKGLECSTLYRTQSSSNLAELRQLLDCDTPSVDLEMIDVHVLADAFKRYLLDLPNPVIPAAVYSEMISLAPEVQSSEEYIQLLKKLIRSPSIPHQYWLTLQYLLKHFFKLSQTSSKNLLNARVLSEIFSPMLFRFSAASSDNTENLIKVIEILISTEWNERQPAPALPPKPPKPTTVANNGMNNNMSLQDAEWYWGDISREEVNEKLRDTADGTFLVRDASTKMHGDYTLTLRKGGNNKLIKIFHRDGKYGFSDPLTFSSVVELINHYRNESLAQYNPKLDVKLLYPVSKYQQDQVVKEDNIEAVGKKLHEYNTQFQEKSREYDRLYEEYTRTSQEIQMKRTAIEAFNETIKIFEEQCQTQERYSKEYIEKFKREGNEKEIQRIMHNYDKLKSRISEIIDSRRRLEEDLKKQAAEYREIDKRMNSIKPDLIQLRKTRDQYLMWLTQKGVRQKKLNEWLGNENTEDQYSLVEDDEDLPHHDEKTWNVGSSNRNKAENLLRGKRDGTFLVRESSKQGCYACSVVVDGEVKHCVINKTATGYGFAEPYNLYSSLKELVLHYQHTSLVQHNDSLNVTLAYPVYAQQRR

[2] = test system: CD69+B220+ cells (mouse spleen cells); assay: B cell activation assay (IgD-stimulated CD69 on B220+ spleen cells, FACS); assay type: cell-based; details: 100 nM test compound, 30 min, then IgD 3 μg/mL 4 h, read-out: CD69 @ 100 nM (% Inh)
Method: 1 Female mouse approximately 2 months old was euthanized with CO2 and the spleen removed. The tissue was homogenized with a polished glass microscope slide. The cells were collected in 5 mL complete medium (RPMI+10% FBS+pen/strep), placed in a 15 mL falcon tube and centrifuged at 500×g for 5 min. The supernatant was discarded and the pellet was resuspended in 3 mL of ACK lysis buffer (NH4Cl 0.17M, KHCO3 10 mM, EDTA-Na2 0.1 mM, pH 7.2), incubated at 37° C. for 5 min. 2 mL complete medium was added and the mixture centrifuged at 500×g for 5 min. The supernatant was discarded and the pellet resuspended in 1 mL complete medium. The mixture was passed through a […] cell strainer and collect in 50 mL falcon tube. Enough medium was added to have a total of 10 mL. The cells were counted and seeded in 24 or 48-well plate in 1 mL complete medium at 10^6 cells/mL. The plate was placed in a 37° C. incubator for 15 min. The cells were treated for 30 min at 37° C. with 100 nM test compound dissolved in 100% DMSO. 3 μL IgD (Accurate chemical and scientific corp.) was added at a final concentration of 3 μg/mL and the mixture incubated at 37° C. for 4 h. The cells were collected in 1.5 mL eppendorf tubes, centrifuged at 500×g for 5 min and then resuspended in 100 μL of PBS+2% FBS. The following antibodies were added: α-B220 PE (pharmingen #553090), α-CD69 APC (pharmingen #60689), live/dead fixable aqua dead cell stain kit (life technologies # L34957) all at 1:300, and the mixture incubated for 15 min at 4° C. in the dark. To this was added 900 μL of PBS+2% FBS and the mixture centrifuged at 500×g for 5 min. The supernatant was removed and the pellet resuspended in 300 μL of PBS+2% FBS and mixed well. The mixture was transferred to a cytometer tube. The samples were run in the FACS Canto II cytometer and quantified by the number of CD69+B220+ cells as a percentage of the total number of B220+ alive cells.

PI3Kδ [3] = target: T2, PI3Kδ; assay: PI3Kδ kinase profiling, HTRF PIP3 displacement assay (Reaction Biology); assay type: biochemical; details: compound 1 μM; ATP 10 μM; read-out: PI3Kδ @ 1 μM (% Inh)
Description: as §1
PI3Kδ assay: The PIP3 product is detected by displacement of biotin-PIP3 from an energy transfer complex consisting of Europium labeled anti-GST monoclonal antibody, a GST-tagged pleckstrin homology (PH) domain, biotinylated PIP3 and Streptavidin-Allophycocyanin (APC). Excitation of Europium in the complex results in an energy transfer to the APC and a fluorescent emission at 665 nm. The PIP3 product formed by PI3-Kinase (h) activity displaces biotin-PIP3 from the complex resulting in a loss of energy transfer and thus a decrease in signal. This is a 3-step reaction: First, the kinase reaction with PIP2 substrate is carried out in the presence of ATP (10 μM), and the reaction is quenched with stop Solution, and then finally detect by adding Detection Mixture followed by incubation (10 min). Reaction procedure: 1) Prepare substrate in freshly prepared Reaction Buffer. 2) Deliver kinase into the substrate solution and gently mix. 3) Deliver compounds in 100% DMSO (1 μM) into the kinase reaction mixture by Acoustic technology (Echo550; nanoliter range), incubate for 10 min at RT. 4) Deliver ATP into the reaction mixture to initiate the reaction. 5) Incubate for 30 min at 30° C. 6) Quench the reaction with Stop Solution. 7) Add Detection Mixture, and incubate for overnight. 8) Measure HTRF: Ex=320 nm, ratio of Em=615 nm and Em=665 nm. The emission ratio is converted into μM PIP3 production based on PIP3 standard curves. The nonlinear regression to obtain the standard curve and IC50 values are performed using Graphpad Prism software. Assay Buffer: HEPES 50 mM (pH7.0), NaN3 0.02%, BSA 0.01%, Orthovanadate 0.1 mM, 1% DMSO. Detection buffer: HEPES 10 mM (pH7.0), BSA 0.02%, KF 0.16 M, EDTA 4 mM. Substrate: 10 μM PIP2 substrate (PI(4,5)P2).

[4] = test system: CD69+B220+ cells (mouse spleen cells); assay: B cell activation assay (IgD-stimulated CD69 on B220+ spleen cells, FACS); assay type: cell-based; details: IgD 3 μg/mL 4 h

Structure (SMILES)	inhibition at 0.01 µM (BTK) [%]	inhibition at 0.1 µM (BTK) [%]	inhibition at 0.01 µM (PI3Kδ [1]) [%]	inhibition at 0.1 µM (PI3Kδ [1]) [%]	inhibition at 1 µM (BTK) [%]	inhibition at 1 µM (PI3Kδ [3]) [%]	IC50 [4] [nM]	inhibition at 0.1 µM [2] [%]
CCC(=O)N(CCn1nc(-c2cc(O)cc(F)c2)c2c(N)ncnc21)Cc1ccccc1 [Compound 7, N-{2-[4-amino-3-(3-fluoro-5-hydroxyphenyl)-1H-pyrazolo[3,4-d]pyrimidin-1-yl]ethyl}-N-benzylpropanamide]		19.9		83.5	20.6	96.3	81.9 ± 6.5	66.5 ± 5.85
Nc1ncnc2c1c(-c1cc(O)cc(F)c1)nn2CCNCc1ccccc1 [Compound 4, 3-{4-amino-1-[2-(benzylamino)ethyl]-1H-pyrazolo[3,4-d]pyrimidin-3-yl}-5-fluorophenol]	-1.37	14.8	1.78	68				39.1 ± 7.85
Nc1ncnc2c1c(-c1cc(O)cc(F)c1)nn2CCN(Cc1ccccc1)C(=O)C1CC1 [Compound 8, N-{2-[4-amino-3-(3-fluoro-5-hydroxyphenyl)-1H-pyrazolo[3,4-d]pyrimidin-1-yl]ethyl}-N-benzylcyclopropanecarboxamide]		9.54		70	12.2	86.1		
C=CC(=O)N(CCn1cc(-c2ccc(Cl)c(O)c2)c2c(N)ncnc21)Cc1ccc(F)cc1 [Compound 13, N-{2-[4-amino-5-(4-chloro-3-hydroxyphenyl)-7H-pyrrolo[2,3-d]pyrimidin-7-yl]ethyl}-N-[(4-fluorophenyl)methyl]prop-2-enamide]	95.6	98.6	14	43				-165 ± 63
C=CC(=O)N(CCn1nc(-c2cc(F)cc(OC(C)=O)c2)c2c(N)ncnc21)Cc1ccccc1 [Compound 9, 3-{4-amino-1-[2-(N-benzylprop-2-enamido)ethyl]-1H-pyrazolo [3,4-d]pyrimidin-3-yl}-5-fluorophenyl acetate]		47.3		47	91.6	85.2		
C=CC(=O)N(CCn1nc(-c2ccc(Cl)c(O)c2)c2c(N)ncnc21)Cc1ccc(Cl)cc1 [Compound 15, N-{2-[4-amino-3-(4-chloro-3-hydroxyphenyl)-1H-pyrazolo[3,4-d]pyrimidin-1-yl]ethyl}-N-[(4-chlorophenyl)methyl]prop-2-enamide]	48.5	92.1	7.57	31.1				-103 ± 45.4
C=CC(=O)N(CCn1nc(-c2ccc(Cl)c(O)c2)c2c(N)ncnc21)Cc1ccc(OC)cc1 [Compound 17, N-{2-[4-amino-3-(4-chloro-3-hydroxyphenyl)-1H-pyrazolo[3,4-d]pyrimidin-1-yl]ethyl}-N-[(4-methoxyphenyl)methyl]prop-2-enamide]	90.3	96.2	13.6	41.1				-61.1 ± 47.1
C=CC(=O)N(CCn1nc(-c2ccc(Cl)c(O)c2)c2c(N)ncnc21)Cc1ccc(F)cc1 [Compound 14, N-{2-[4-amino-3-(4-chloro-3-hydroxyphenyl)-1H-pyrazolo[3,4-d]pyrimidin-1-yl]ethyl}-N-[(4-fluorophenyl)methyl]prop-2-enamide]	86.5	96.1	24.8	55				-135 ± 55.8

More lines, main results first:

inhibition at 0.01 µM (BTK) [%]	inhibition at 0.1 µM (BTK) [%]	inhibition at 0.01 µM (PI3Kδ [1]) [%]	inhibition at 0.1 µM (PI3Kδ [1]) [%]	inhibition at 1 µM (BTK) [%]	inhibition at 1 µM (PI3Kδ [3]) [%]	IC50 [4] [nM]	Structure (SMILES)	inhibition at 0.1 µM [2] [%]
62.5	93.1	20.8	23.4				C=CC(=O)N(CCn1nc(-c2cc(F)c3c(c2)NCCO3)c2c(N)ncnc21)Cc1ccc(Cl)cc1 [Compound 18, N-{2-[4-amino-3-(8-fluoro-3,4-dihydro-2H-1,4-benzoxazin-6-yl)-1H-pyrazolo [3,4-d]pyrimidin-1-yl]ethyl}-N-[(4-chlorophenyl)methyl]prop-2-enamide]	-7.39 ± 6.26
12.7	60.5	3.31	66.7				Nc1ncnc2c1c(-c1cc(O)c(F)c(F)c1)nn2CCNCc1cccnc1 [Compound 23, 5-(4-amino-1-{2-[(pyridin-3-ylmethyl)amino]ethyl}-1H-pyrazolo[3,4-d]pyrimidin-3-yl)-2,3-difluorophenol]	39.7 ± 10.2
9.64	37.1	8.59	56.6				Nc1ncnc2c1c(-c1cc(O)c(F)c(F)c1)nn2CCNc1ncccn1 [Compound 21, 5-(4-amino-1-{2-[(pyrimidin-2-yl)amino]ethyl}-1H-pyrazolo[3,4-d]pyrimidin-3-yl)-2,3-difluorophenol]	18.2 ± 2.92
96.5	96.7	-32.3	0.74				C=CC(=O)N(CCn1nc(-c2ccc(Oc3ccccc3)cc2)c2c(N)ncnc21)Cc1ccccc1 [Compound 24, N-{2-[4-amino-3-(4-phenoxyphenyl)-1H-pyrazolo[3,4-d]pyrimidin-1-yl]ethyl}-N-benzylprop-2-enamide]	55.8 ± 9.1
90.3	95.4	17.1	40.6				C=CC(=O)N(CCn1nc(-c2ccc(Cl)c(O)c2)c2c(N)ncnc21)Cc1ccco1 [Compound 20, N-{2-[4-amino-3-(4-chloro-3-hydroxyphenyl)-1H-pyrazolo[3,4-d]pyrimidin-1-yl]ethyl}-N-(furan-2-ylmethyl)prop-2-enamide]	-82 ± 14.7
